Active and inactive are the calls of the source. The rule behind the calls is not given here.
Tests used:
Assay type in all cases: cell-based
[1] = biological target: T1, N-myc proto-oncogene protein (Homo sapiens) (UniProt P04198); assay: Induction of MYCN degradation in human SKNBE2 cells at 5 uM incubated for 24 hrs by Western blot analysis
T1 sequence (whole entry): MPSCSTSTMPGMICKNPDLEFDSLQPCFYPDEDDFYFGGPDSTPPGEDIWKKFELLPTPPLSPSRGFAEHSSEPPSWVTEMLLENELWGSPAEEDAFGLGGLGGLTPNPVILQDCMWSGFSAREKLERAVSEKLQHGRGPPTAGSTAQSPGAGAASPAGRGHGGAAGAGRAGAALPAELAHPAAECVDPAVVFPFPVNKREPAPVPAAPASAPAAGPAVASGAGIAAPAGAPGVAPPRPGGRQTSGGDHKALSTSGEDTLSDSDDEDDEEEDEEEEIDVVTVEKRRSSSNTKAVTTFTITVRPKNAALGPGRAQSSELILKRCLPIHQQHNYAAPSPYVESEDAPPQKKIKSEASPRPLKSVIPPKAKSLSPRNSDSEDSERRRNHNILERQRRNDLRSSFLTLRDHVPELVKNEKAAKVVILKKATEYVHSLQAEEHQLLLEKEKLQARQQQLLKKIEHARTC

SKNBE2 [2] = assay: Inhibition of PI3K in human SKNBE2 cells assessed as degradation of MYCN protein at 10 to 15 uM incubated for 24 hrs by Western blotting analysis; conditions: dose 10-15 µM
[3] = biological target: T1, N-myc proto-oncogene protein (Homo sapiens); assay: Induction of MYCN degradation in human SKNBE2 cells at 5 to 50 uM incubated for 24 hrs by Western blot analysis; conditions: dose 5-50 µM
[4] = biological target: Serine/threonine-protein kinase 38-like (Homo sapiens) (UniProt Q9Y2H1); assay: Inhibition of NDR2 in human SKNBE2 cells assessed as decreased accumulation of MYCN protein measured after 24 hrs by Western blot analysis
[5] = biological target: T2, Serine/threonine-protein kinase Chk1 (Homo sapiens) (UniProt O14757); assay: Inhibition of CHK1 in human SKNBE2 cells assessed as depletion of MYCN protein at >1 uM incubated for 24 hrs by Western blotting analysis
T2 sequence (whole entry): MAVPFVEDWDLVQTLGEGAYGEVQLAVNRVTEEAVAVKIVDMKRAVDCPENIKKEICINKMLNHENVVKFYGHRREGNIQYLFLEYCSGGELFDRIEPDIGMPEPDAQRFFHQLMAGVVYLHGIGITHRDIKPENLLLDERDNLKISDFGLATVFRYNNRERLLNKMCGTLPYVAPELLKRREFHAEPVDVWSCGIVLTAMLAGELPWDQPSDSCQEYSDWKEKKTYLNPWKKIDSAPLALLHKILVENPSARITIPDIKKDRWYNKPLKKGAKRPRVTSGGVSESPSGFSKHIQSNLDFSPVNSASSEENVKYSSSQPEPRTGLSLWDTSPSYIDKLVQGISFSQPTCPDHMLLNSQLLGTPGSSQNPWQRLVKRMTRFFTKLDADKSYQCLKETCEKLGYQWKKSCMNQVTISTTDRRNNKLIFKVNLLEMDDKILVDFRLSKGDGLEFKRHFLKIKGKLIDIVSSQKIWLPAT

[6] = biological target: T1, N-myc proto-oncogene protein (Homo sapiens); assay: Induction of MYCN degradation in human SKNBE2 cells at 45 uM incubated for 24 hrs by Western blot analysis
[7] = biological target: Serine/threonine-protein kinase 38-like (Homo sapiens) (UniProt Q9Y2H1); assay: Inhibition of NDR2 in human SKNBE2 cells assessed as depletion of MYCN protein at 10 uM measured after 24 hrs in presence of Cx4945 by Western blot analysis
[8] = biological target: Serine/threonine-protein kinase 38-like (Homo sapiens) (UniProt Q9Y2H1); assay: Inhibition of NDR2 in human SKNBE2 cells assessed as depletion of MYCN protein at 10 uM measured after 24 hrs in presence of BEZ235 by Western blot analysis
[9] = biological target: Serine/threonine-protein kinase 38-like (Homo sapiens) (UniProt Q9Y2H1); assay: Inhibition of NDR2 in human SKNBE2 cells assessed as depletion of MYCN protein at 10 uM measured after 24 hrs in presence of CHIR-124, BEZ235 and Cx4945 by Western blot analysis
[10] = biological target: Serine/threonine-protein kinase 38-like (Homo sapiens) (UniProt Q9Y2H1); assay: Inhibition of NDR2 in human SKNBE2 cells assessed as depletion of MYCN protein at 10 uM measured after 24 hrs in presence of BEZ235 and Cx4945 by Western blot analysis
[11] = biological target: Serine/threonine-protein kinase 38-like (Homo sapiens) (UniProt Q9Y2H1); assay: Binding affinity to STK38L in human SKNBE2 cells assessed as effect on thermal stability at 49 degC incubated for 3 hrs by CETSA assay
[12] = biological target: Serine/threonine-protein kinase 38-like (Homo sapiens) (UniProt Q9Y2H1); assay: Inhibition of NDR2 in human SKNBE2 cells assessed as depletion of MYCN protein at 10 uM measured after 24 hrs in presence of CHIR-124 and BEZ235 by Western blot analysis
[13] = biological target: Serine/threonine-protein kinase 38-like (Homo sapiens) (UniProt Q9Y2H1); assay: Inhibition of NDR2 in human SKNBE2 cells assessed as depletion of MYCN protein at 10 uM measured after 24 hrs in presence of CHIR-124 by Western blot analysis
SKNBE2 [14] = assay: Inhibition of PI3K in human SKNBE2 cells assessed as depletion of MYCN protein at 5 uM measured after 24 hrs in presence of Cx4945 and NG25 by Western blot analysis
SKNBE2 [15] = assay: Inhibition of PI3K in human SKNBE2 cells assessed as depletion of MYCN protein at 5 uM measured after 24 hrs in presence of CHIR-124 by Western blot analysis
SKNBE2 [16] = assay: Inhibition of PI3K in human SKNBE2 cells assessed as degradation of MYCN protein at 5 to 10 uM incubated for 24 hrs by Western blotting analysis; conditions: dose 5-10 µM
SKNBE2 [17] = assay: Inhibition of PI3K in human SKNBE2 cells assessed as reduction in MYCN/GADPH protein ratio at 5 uM incubated for 24 hrs in presence of […]/CHIR-124 by Western blotting analysis
SKNBE2 [18] = assay: Inhibition of PI3K in human SKNBE2 cells assessed as depletion of MYCN protein at 5 uM measured after 24 hrs in presence of Cx4945 by Western blot analysis
SKNBE2 [19] = assay: Inhibition of PI3K in human SKNBE2 cells assessed as reduction in MYCN/GADPH protein ratio at 5 uM incubated for 24 hrs in presence of CHIR-124 by Western blotting analysis
SKNBE2 [20] = assay: Inhibition of PI3K in human SKNBE2 cells assessed as depletion of MYCN protein at 5 uM measured after 24 hrs in presence of NG25 and CHIR-124 by Western blot analysis
SKNBE2 [21] = assay: Inhibition of PI3K in human SKNBE2 cells assessed as depletion of MYCN protein at 5 uM measured after 24 hrs in presence of Cx4945 and CHIR-124 by Western blot analysis
SKNBE2 [22] = assay: Inhibition of PI3K in human SKNBE2 cells assessed as reduction in MYCN/GADPH protein ratio at 5 uM incubated for 24 hrs in presence of Cx945 by Western blotting analysis
SKNBE2 [23] = assay: Inhibition of PI3K in human SKNBE2 cells assessed as depletion of MYCN protein at 5 uM measured after 24 hrs in presence of NG25, Cx4945 and CHIR-124 by Western blot analysis
SKNBE2 [24] = assay: Inhibition of PI3K in human SKNBE2 cells assessed as depletion of MYCN protein at 5 uM measured after 24 hrs in presence of NG25 by Western blot analysis
[25] = biological target: T1, N-myc proto-oncogene protein (Homo sapiens); assay: Induction of MYCN degradation in human SKNBE2 cells incubated for 24 hrs by Western blot analysis; conditions: dose 1-50 µM
[26] = biological target: Serine/threonine-protein kinase 38-like (Homo sapiens) (UniProt Q9Y2H1); assay: Inhibition of NDR2 in human SKNBE2 cells assessed as depletion of MYCN protein at 10 uM measured after 24 hrs in presence of CHIR-124 and Cx4945 by Western blot analysis
SKNBE2 [27] = assay: Inhibition of CK2 in human SKNBE2 cells assessed as reduction in MYCN/GADPH protein ratio at 20 uM incubated for 24 hrs in presence of CHIR-124/BEZ235 by Western blotting analysis
[28] = biological target: T1, N-myc proto-oncogene protein (Homo sapiens); assay: Induction of MYCN degradation in human SKNBE2 cells at 5 to 15 uM incubated for 24 hrs by Western blot analysis; conditions: dose 5-15 µM

Serine/threonine-protein kinase 38-like (Homo sapiens), sequence (Q9Y2H1 2-464 limits assumed): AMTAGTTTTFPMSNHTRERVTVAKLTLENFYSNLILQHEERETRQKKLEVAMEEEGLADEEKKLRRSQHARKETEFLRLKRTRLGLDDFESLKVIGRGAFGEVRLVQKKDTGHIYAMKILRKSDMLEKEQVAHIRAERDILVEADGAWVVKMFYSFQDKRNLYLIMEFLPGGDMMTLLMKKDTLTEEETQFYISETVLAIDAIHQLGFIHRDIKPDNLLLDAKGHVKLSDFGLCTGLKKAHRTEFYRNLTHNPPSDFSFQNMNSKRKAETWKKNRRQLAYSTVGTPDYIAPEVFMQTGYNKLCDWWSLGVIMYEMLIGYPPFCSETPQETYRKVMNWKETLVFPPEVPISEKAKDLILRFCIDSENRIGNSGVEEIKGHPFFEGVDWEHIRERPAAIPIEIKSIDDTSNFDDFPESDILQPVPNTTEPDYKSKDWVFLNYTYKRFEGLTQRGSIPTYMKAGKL

Question: With `CC(C)CCOc1ccc2c(c1)OCC(c1ccc(O)c(O)c1)C2` (stereo not given) as the compound, how does the Activity [1] read?
Answer: Active

Question: With `CS(=O)(=O)N1CCN(Cc2cc3nc(-c4cccc5[nH]ncc45)nc(N4CCOCC4)c3s2)CC1` as the compound, how does the inhibition (SKNBE2 [2]) read?
Answer: inactive

Question: Which Activity [3] does the source give for `CCCOc1ccc2c(=O)c(-c3ccc(O)c(O)c3)coc2c1` here?
Answer: Active

Question: How did the inhibition [4] turn out when `COc1cc(N2CCC(N3CCN(C)CC3)CC2)ccc1Nc1ncc(Cl)c(Nc2ccccc2S(=O)(=O)C(C)C)n1` was run?
Answer: Dose-Dependent Effect

Question: `Cn1cc(-c2[nH]c3cc(NC(=O)[C@H](N)C4CCCCC4)cc4c3c2C=NNC4=O)cn1` was tested. Which inhibition [5] did it give?
Answer: Active

Question: With `CC(C)CCOc1ccc2occ(-c3ccc(O)c(O)c3)c(=O)c2c1` as the compound, how does the Activity [6] read?
Answer: Active

Question: For `CCN1CCN(Cc2ccc(NC(=O)c3ccc(C)c(Oc4ccnc5[nH]ccc45)c3)cc2C(F)(F)F)CC1`, which inhibition [7] is on record?
Answer: inactive

Question: What about the inhibition [8] of the same compound?
Answer: Active

Question: What about the inhibition [9] of the same compound?
Answer: Active

Question: What about the inhibition [10] of the same compound?
Answer: Active

Question: What about the Activity [11] of the same compound?
Answer: inactive

Question: And the inhibition [12]?
Answer: Active

Question: What about the inhibition [13] of the same compound?
Answer: Active

Question: And the inhibition [4]?
Answer: Dose-Dependent Effect

Question: Which inhibition (SKNBE2 [14]) does the source give for `Cn1c(=O)n(-c2ccc(C(C)(C)C#N)cc2)c2c3cc(-c4cnc5ccccc5c4)ccc3ncc21` here?
Answer: Active

Question: And the inhibition (SKNBE2 [15])?
Answer: Active

Question: What about the inhibition (SKNBE2 [16]) of the same compound?
Answer: inactive

Question: What about the inhibition (SKNBE2 [17]) of the same compound?
Answer: Active

Question: And the inhibition (SKNBE2 [18])?
Answer: Active

Question: What about the inhibition (SKNBE2 [19]) of the same compound?
Answer: Active

Question: What about the inhibition (SKNBE2 [20]) of the same compound?
Answer: Active

Question: What about the inhibition (SKNBE2 [21]) of the same compound?
Answer: Active

Question: What about the inhibition (SKNBE2 [22]) of the same compound?
Answer: Active

Question: What about the inhibition (SKNBE2 [23]) of the same compound?
Answer: Active

Question: And the inhibition (SKNBE2 [24])?
Answer: Active

Question: For `COc1cc(C)c(Sc2cnc(NC(=O)c3ccc(CNC(C)C(C)(C)C)cc3)s2)cc1C(=O)N1CCN(C(C)=O)CC1` (stereo not given), which Activity [25] is on record?
Answer: Dose-Dependent Effect

Question: With `O=C(O)c1ccc2c(c1)nc(Nc1cccc(Cl)c1)c1ccncc12` as the compound, how does the inhibition [26] read?
Answer: Active

Question: What about the inhibition (SKNBE2 [27]) of the same compound?
Answer: Active

Question: For `CCCCCCOc1ccc2c(=O)c(-c3ccc(O)c(O)c3)coc2c1`, which Activity [28] is on record?
Answer: Active

Question: `CCN1CCN(c2ccc(Nc3cc(N(C)C(=O)Nc4c(Cl)c(OC)cc(OC)c4Cl)ncn3)cc2)CC1` was tested. Which inhibition [4] did it give?
Answer: Dose-Dependent Effect

Source: ChEMBL document CHEMBL5370693, “Kinases Controlling Stability of the Oncogenic MYCN Protein” (ACS Med Chem Lett, 2023)
